In PMC9385704, “A tubulin binding molecule drives differentiation of acute myeloid leukemia cells” (iScience, 2022):

Molecular target: tubulin beta chain (TUBB) (Homo sapiens, UniProt P07437)
Test: competition with photoaffinity probe […] in HL-60 cells; pull-down LC-MS/MS and anti-TUBB immunoblot
Assay type: cell-based

Chain of tubulin beta chain (TUBB) (P07437 whole entry): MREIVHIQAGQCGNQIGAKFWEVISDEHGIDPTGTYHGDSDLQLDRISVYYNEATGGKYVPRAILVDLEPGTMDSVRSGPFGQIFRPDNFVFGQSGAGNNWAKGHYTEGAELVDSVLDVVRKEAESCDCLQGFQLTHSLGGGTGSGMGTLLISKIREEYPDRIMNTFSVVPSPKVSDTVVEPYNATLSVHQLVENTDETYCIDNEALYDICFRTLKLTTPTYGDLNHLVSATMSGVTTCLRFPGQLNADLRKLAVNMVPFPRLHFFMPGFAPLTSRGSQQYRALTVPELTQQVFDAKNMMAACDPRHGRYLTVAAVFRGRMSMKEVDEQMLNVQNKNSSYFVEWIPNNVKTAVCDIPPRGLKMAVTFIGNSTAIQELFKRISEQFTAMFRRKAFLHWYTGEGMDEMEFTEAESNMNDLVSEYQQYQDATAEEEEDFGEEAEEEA

Cc1cc(C#N)ccc1-c1cc2c(cn1)ncn2-c1ccc2c(C)n[nH]c2c1 [compound 5, 3-Methyl-4-[1-(3-methyl-1H-indazol-6-yl)imidazo[4,5-c]pyridin-6-yl]benzonitrile]
competition with photoaffinity probe 4 in HL-60 cells; pull-down LC-MS/MS and an: The results clearly show concentration-dependent competition with OXS0082555 and paclitaxel confirming tubulin beta chain as a direct target
